Holding throughout (format): biochemical
In one assay the target is plasmin (Homo sapiens, UniProt P00747). The experiment in a line: Cross reactivity assay, plasmin. The note with it: 8 nM plasmin. As to the method: (§1) To determine cross-reactivity an assay was performed using a range of coagulation enzymes at representative concentrations in human plasma. […] For tissue-type plasminogen activator (tPA) this is the conventional concentration for facilitation of fibrinolysis. A concentration of 80 nm FXa yielded a signal of 1.000.000 RLU.
Chain of plasmin (P00747 581-810 limits assumed): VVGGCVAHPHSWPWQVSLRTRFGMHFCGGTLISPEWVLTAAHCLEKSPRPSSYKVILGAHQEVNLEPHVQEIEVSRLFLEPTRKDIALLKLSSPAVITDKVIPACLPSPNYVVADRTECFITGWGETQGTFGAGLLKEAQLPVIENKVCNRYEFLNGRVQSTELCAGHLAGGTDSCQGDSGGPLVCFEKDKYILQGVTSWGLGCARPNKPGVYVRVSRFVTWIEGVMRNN
Chain of plasmin (P00747 97-580 partner limits assumed): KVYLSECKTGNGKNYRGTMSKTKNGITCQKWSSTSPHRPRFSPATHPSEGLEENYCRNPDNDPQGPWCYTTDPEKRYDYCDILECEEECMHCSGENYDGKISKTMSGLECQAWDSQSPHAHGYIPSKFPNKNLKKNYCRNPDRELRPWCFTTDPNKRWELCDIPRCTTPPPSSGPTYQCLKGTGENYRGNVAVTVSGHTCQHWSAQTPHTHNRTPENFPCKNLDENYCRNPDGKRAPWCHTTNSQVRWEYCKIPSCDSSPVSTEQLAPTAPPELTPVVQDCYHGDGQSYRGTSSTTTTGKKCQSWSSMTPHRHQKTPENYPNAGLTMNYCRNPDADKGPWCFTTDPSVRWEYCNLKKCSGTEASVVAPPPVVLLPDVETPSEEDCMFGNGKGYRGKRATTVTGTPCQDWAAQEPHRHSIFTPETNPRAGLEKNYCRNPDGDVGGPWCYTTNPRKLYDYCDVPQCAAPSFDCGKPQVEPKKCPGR

Assay [1] has as its target T1, FXa (Homo sapiens, UniProt P00742).
T1 construct: purchased Coachrom
The experiment in a line: Michaelis-Menten kinetics of substrate with FXa (luciferase luminescence). Conditions: FXa concentration 1.6 nM. Here is the method: Michaelis-Menten kinetics were determined for the enzyme FXa and its substrate MePEG2-IEGR (the TFA salt was used in these examples). The following composition was prepared in a microvial on ice:
160 μL Tris buffered saline (TBS) 50 mM Tris-HCI, 150 mM NaCI (pH 7.4)
4 μL ATP (final concentration 333 μM)
4 μL MgC2 (final concentration 8.3 mM)
12 μL Luciferase (final concentration 0.9 mg/ml)
Substrate compositions 2a-g:
Microvials were prepared with 30 μL substrate concentrations leading to final concentrations of 2000, 1333, 1000, 666, 333, 167 and 66 μM.
FXa (Coachrom, 16 nM) composition was prepared in a microvial on ice
Subsequently, the following compositions were added together in a white 384-well plate:
Subsequently the well plate was placed in a 37 ° C. thermostated Flexstation 3 (Molecular Devices). Luminescence emission wavelength was with an integration time of 1500 ms, measured for 1s every 30 s during 30 min.

In assay [2] the target is tissue-type plasminogen activator (tPA) (Homo sapiens, UniProt P00750). The experiment in a line: Cross reactivity assay, tPA. Conditions: 193 IU/mL tPA. As to the method:
as §1

Another assay deals with T2, thrombin (Homo sapiens, UniProt P00734).
T2 construct: FXa acts by cleaving prothrombin, yielding active thrombin
Put plainly: Cross reactivity assay, thrombin. Conditions: 52 nM thrombin. Here is the method: as §1

The target of assay [3] is T1, FXa. The experiment in a line: Cross reactivity assay, FXa. Conditions: compared with thrombin, plasmin, tPA, FXlla. Here is the method:
as §1

The target of the next assay is T3, FXlla (Homo sapiens, UniProt P00748).
T3 construct: initiated by addition of active coagulation factors such as FXlla, FXla, or FIXa
T3 sequence (P00748 373-615 limits assumed): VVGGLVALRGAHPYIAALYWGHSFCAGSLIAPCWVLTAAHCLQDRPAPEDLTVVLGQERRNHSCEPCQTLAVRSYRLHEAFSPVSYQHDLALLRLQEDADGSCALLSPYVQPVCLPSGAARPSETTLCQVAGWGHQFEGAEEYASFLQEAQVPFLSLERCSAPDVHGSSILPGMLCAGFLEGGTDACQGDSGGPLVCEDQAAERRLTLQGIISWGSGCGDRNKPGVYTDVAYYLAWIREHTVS
Put plainly: Cross reactivity assay, FXIIa. Conditions: 145 nM FXlla. Here is the method: as §1

Where a SMILES comes first, the peptide text is derived from it. The star is where a group is joined. X1 = O=C(O)[C@H]1CSC(c2nc3ccc(N*)cc3s2)=N1; Decanoyl(3,6,9-trioxa) = COCCOCCOCC(=O)*

The Km is the concentration of substrate that gives half-maximal velocity.

T1 sequence (P00742 235-488 limits assumed): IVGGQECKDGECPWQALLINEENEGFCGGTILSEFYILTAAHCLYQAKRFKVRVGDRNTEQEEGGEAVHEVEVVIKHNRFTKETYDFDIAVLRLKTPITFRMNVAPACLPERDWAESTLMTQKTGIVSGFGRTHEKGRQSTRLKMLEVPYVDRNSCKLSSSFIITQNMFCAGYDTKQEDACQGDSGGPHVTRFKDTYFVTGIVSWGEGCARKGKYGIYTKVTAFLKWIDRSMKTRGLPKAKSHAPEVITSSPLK
T1 sequence (P00742 41-179 partner limits assumed): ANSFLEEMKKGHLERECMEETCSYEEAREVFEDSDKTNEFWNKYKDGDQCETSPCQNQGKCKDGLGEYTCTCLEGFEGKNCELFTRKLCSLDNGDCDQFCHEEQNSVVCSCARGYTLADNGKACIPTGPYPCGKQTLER
Chain of tissue-type plasminogen activator (tPA) (P00750 36-562): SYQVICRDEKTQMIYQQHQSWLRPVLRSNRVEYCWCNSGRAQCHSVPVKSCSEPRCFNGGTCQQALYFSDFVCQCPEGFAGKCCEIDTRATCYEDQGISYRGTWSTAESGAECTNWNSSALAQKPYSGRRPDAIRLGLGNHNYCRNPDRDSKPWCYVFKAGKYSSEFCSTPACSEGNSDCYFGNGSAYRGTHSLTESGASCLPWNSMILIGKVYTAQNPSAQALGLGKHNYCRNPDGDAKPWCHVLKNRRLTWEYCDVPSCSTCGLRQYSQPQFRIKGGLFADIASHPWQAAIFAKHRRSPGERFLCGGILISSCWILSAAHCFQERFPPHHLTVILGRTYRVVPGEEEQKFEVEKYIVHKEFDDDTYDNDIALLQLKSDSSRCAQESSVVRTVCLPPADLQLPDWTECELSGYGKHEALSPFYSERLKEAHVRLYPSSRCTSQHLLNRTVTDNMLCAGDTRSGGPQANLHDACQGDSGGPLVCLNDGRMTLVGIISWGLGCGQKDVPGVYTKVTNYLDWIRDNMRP

In the case of `CC[C@H](C)[C@H](NC(=O)COCCOCCOC)C(=O)N[C@@H](CCC(=O)O)C(=O)NCC(=O)N[C@@H](CCCNC(=N)N)C(=O)Nc1ccc2nc(C3=N[C@@H](C(=O)O)CS3)sc2c1` [MePEG2-IEGR] ({Decanoyl(3,6,9-trioxa)}-IEGR-X1), the luminescent signal is on record as around 8.000 RLU on plasmin, around 6.000 RLU in assay [2], around 30.000 RLU at thrombin and around 500 RLU on FXlla. Also, the “Kcat=Vmax/[FXa]” value on FXa [1] came out at 1.05e+14 s⁻¹. Besides, the Km at FXa [1] (37 °C) was determined as 619 µM. Moreover, the Vmax on FXa [1] (37 °C, luciferase/ATP/Mg readout) came to 468000 RLU. Moreover, the “cross-reactivity with serine proteases other than FXa” value at FXa [3] is given as “minimal cross-reactivity”.

These data come from patent US20210371461A1, “Novel chemiluminescent substrates for Factor Xa” (Enzyre B.V., priority 2018, published 2021).
